Marks after values point to notes of the source that are not given here.
What follows are molecules tested on co-cultures of HaCaT keratinocytes and melanocytes (neonatal primary human epidermal melanocytes) (assay: Melanin content assay (% cellular melanin vs control) in keratinocyte/melanocyte co-cultures). Conditions: percentage cellular melanin vs control; 72 h of active treatment; OD at 405 nm; active concentrations (wt %) as given per example.
Format: cell-based
Procedure: Various samples containing actives were prepared and the % cellular melanin content was measured. The protocol for measuring the cellular melanin is summarized below:
Neonatal primary human epidermal melanocytes were sourced from Life Technologies. Melanocytes were maintained in Medium 254 supplemented with human melanocyte growth supplement (MGM). HaCaT keratinocytes were maintained in DMEM medium containing 10% heat inactivated FBS. All media were also supplemented with 10 U/mL penicillin G and 0.1 mg/mL streptomycin sulphate. Both cell types were maintained at 37° C. in a humidified incubator with 5% CO2 atmosphere. Maintenance and sub-culturing of cells were carried out as per the manufacturer's instructions.
For setup of co-cultures, 40,000 cells each of HaCaT keratinocytes and melanocytes were mixed in 1 mL of a 1:1 mix of MGM:KGM (KGM: Epilife medium supplemented with human keratinocyte growth supplement) and seeded as such per well, in 12 well Nunc plates.
Actives were prepared in media and test concentrations were added to cells along with relevant controls 24 h post seeding. After 72 h of active treatment, cell viability (using calcein method) and measurement of cellular melanin content was determined as described below.
After calcein fluorescence readings were obtained, cells were drained and fresh 0.15 mL of 1N NaOH (in 10% DMSO) per well was added. Cells were lysed by resuspension and incubation (60° C. for 1 h). Then, 0.1 mL of this lysate was transferred to a fresh 384-well plate and OD was measured at 405 nm in a TECAN M1000 plate reader. Melanin content was calculated as percentage cellular melanin vs control.

Molecule | % cellular melanin
CCCCCCc1ccc(O)cc1O [Example E, 4-hexyl resorcinol, reference compound] | 69* %
Inulin [B] | 86%
Inulin [Example C] | 96%
